{
  "source": "patent US20080305186A1",
  "about": "“Method and Composition for the Treatment of Cardiac Hypertrophy” (BOARD OF REGENTS, THE UNIVERSITY OF TEXAS SYSTEM, priority 2007, published 2008)",
  "test_system": "cardiac gene expression",
  "test": "Microarray analysis of cardiac gene expression (GeneChip Mouse Genome 430 2.0)",
  "type": "in vivo, mice",
  "method": "Microarray Sample Preparation and Analysis. Animal hearts were rapidly removed, and the atria and right ventricles were cut and immediately plunged into TRIzol Reagent (Life Technologies). Total RNA was isolated following the manufacturer's instructions, purified by phenol-chloroform extraction and then ethanol precipitation, and 20 μg further processed for microarray analysis. Briefly, cDNA synthesis, in vitro transcription, and labeling and fragmentation to produce the oligonucleotide probes were performed as instructed by the GeneChip manufacturer (Affymetrix). The probes were first hybridized to a test array (Affymetrix) and then to the GeneChip Mouse Genome 430 2.0 Array, using the GeneChip Hybridization Oven 640. The chips were washed in a GeneChip Fluidics Station 450 (Affymetrix), and the results were visualized with a GeneChip G7 scanner (Affymetrix). RMA normalization, pairwise comparisons, Student's t test and Benjamini and Hochberg correction were subsequently performed using GeneSifter (VizX Labs, Seattle, Wash.) and Spotfire DecisionSite 8.3 (Spotfire, Inc., Somerville, Mass.).\nEffects on Gene Expression Profile. […] One mouse heart was used for each array, and was performed in triplicate, generating a total of 12 arrays. GeneSifter was used to perform RMA normalization, pairwise comparisons of averaged signal intensity values, and Student's t-test with Benjamini and Hochberg correction, and Spotfire was used to perform pairwise comparisons. […] Additionally, genes that were altered between any two N or cardiac hypertrophy samples were removed, as these alterations most likely represented normal variations between mice.",
  "data": [
    {"smiles": "C[C@H]1c2cccc(O)c2C(=O)C2=C(O)[C@]3(O)C(=O)C(C(N)=O)=C(O)[C@@H](N(C)C)[C@@H]3[C@@H](O)[C@@H]21", "note": "[doxycycline]", "values": [
      {"measurement": "FC EST", "setting": "GenBank BM245060, vs mice given only isoproterenol", "value": "−2.3"},
      {"measurement": "FC Fos-like antigen 2 (Fosl2)", "setting": "GenBank BM245170, vs mice given only isoproterenol", "value": "−2.6"},
      {"measurement": "FC ESTs", "setting": "GenBank BM246377, vs mice given only isoproterenol", "value": "−1.9"},
      {"measurement": "FC Cytoglobin (Cygb)", "setting": "GenBank BM899392, vs mice given only isoproterenol", "value": 1.8},
      {"measurement": "FC Flavin containing monooxygenase 2 (Fmo2)", "setting": "GenBank BM936480, vs mice given only isoproterenol", "value": "−2.7"},
      {"measurement": "FC Tripartite motif protein 24 (Trim24)", "setting": "GenBank BM945528, heart, drug + isoproterenol vs isoproterenol-only mice, CH vs normal FC 1.6", "value": "−1.8", "unit": "fold"},
      {"measurement": "FC Headcase homolog (Heca)", "setting": "GenBank BQ031006, vs mice given only isoproterenol", "value": "−2.2"},
      {"measurement": "FC SERTA domain containing 4 (Sertad4)", "setting": "GenBank BQ174721, vs mice given only isoproterenol", "value": 2.0},
      {"measurement": "FC EST", "setting": "GenBank BQ176399, vs mice given only isoproterenol", "value": "−1.6"},
      {"measurement": "FC Sema domain, seven thrombospondin repeats (type 1 and type 1-like), transmembrane domain (TM) and short cytoplasmic domain, (semaphorin) 5A (Sema5a)", "setting": "GenBank BQ176610, vs mice given only isoproterenol", "value": "−3.9"},
      {"measurement": "FC Transmembrane protein 38B (Tmem38b)", "setting": "GenBank C77858, heart, drug + isoproterenol vs isoproterenol-only mice, CH vs normal FC 2.1", "value": "−1.5", "unit": "fold"},
      {"measurement": "FC Mitochondrial ribosomal protein L45 (Mrpl45)", "setting": "GenBank C79823, vs mice given only isoproterenol", "value": 2.4},
      {"measurement": "FC Leukemia inhibitory factor receptor (Lifr)", "setting": "GenBank D17444, vs mice given only isoproterenol", "value": "−2.0"},
      {"measurement": "FC Tripartite motif protein 25 (Trim25)", "setting": "GenBank D63902, heart, drug + isoproterenol vs isoproterenol-only mice, CH vs normal FC 1.7", "value": "−2.1", "unit": "fold"},
      {"measurement": "FC L20048", "setting": "GenBank L20048, vs mice given only isoproterenol", "value": "−1.9"},
      {"measurement": "FC Cytoplasmic beta-actin (Actb)", "setting": "GenBank M12481, vs mice given only isoproterenol", "value": 3.1},
      {"measurement": "FC Multidrug resistae protein (MDR) (Acb1a)", "setting": "GenBank M30697, vs mice given only isoproterenol", "value": "−2.6"},
      {"measurement": "FC Thymoma viral proto-oogene 2 (Akt2)", "setting": "GenBank NM_007434, heart, drug + isoproterenol vs isoproterenol-only mice, CH vs normal FC −1.8", "value": 1.7, "unit": "fold"},
      {"measurement": "FC Early B-cell factor (Ebf1)", "setting": "GenBank NM_007897, vs mice given only isoproterenol", "value": 2.1},
      {"measurement": "FC Epidermal growth factor receptor pathway substrate 8 (Eps8)", "setting": "GenBank NM_007945, vs mice given only isoproterenol", "value": "−1.8"},
      {"measurement": "FC Tumor necrosis factor receptor superfamily, member 6 (Tnfrsf6) (Fas)", "setting": "GenBank NM_007987, heart, drug + isoproterenol vs isoproterenol-only mice, CH vs normal FC 2.8", "value": "−2.4", "unit": "fold"},
      {"measurement": "FC Glutamate-cysteine ligase, modifier subunit (Gclm)", "setting": "GenBank NM_008129, vs mice given only isoproterenol", "value": "−1.8"},
      {"measurement": "FC Jun-B oogene (Junb)", "setting": "GenBank NM_008416, vs mice given only isoproterenol", "value": "−2.0"},
      {"measurement": "FC Potassium voltage-gated channel, shaker-related subfamily, member 5 (Kcna5)", "setting": "GenBank NM_008419, vs mice given only isoproterenol", "value": "−2.4"},
      {"measurement": "FC NM_008808", "setting": "GenBank NM_008808, vs mice given only isoproterenol", "value": 1.7},
      {"measurement": "FC Pphospholipid scramblase 2 (Plscr2)", "setting": "GenBank NM_008880, vs mice given only isoproterenol", "value": "−1.8"},
      {"measurement": "FC S100 calcium binding protein A9 (calgranulin B) (S100a9)", "setting": "GenBank NM_009114, vs mice given only isoproterenol", "value": "−14.0"},
      {"measurement": "FC Tubulin, alpha 3 (Tuba3)", "setting": "GenBank NM_009446, heart, drug + isoproterenol vs isoproterenol-only mice, CH vs normal FC −1.9", "value": 1.9, "unit": "fold"},
      {"measurement": "FC Tubulin, alpha 4 (Tuba4)", "setting": "GenBank NM_009447 (first entry, r874), heart, drug + isoproterenol vs isoproterenol-only mice, CH vs normal FC −4.3", "value": 4.7, "unit": "fold"},
      {"measurement": "FC Tubulin, alpha 4 (Tuba4)", "setting": "GenBank NM_009447 (second entry, r876), heart, drug + isoproterenol vs isoproterenol-only mice, CH vs normal FC −6.2", "value": 5.8, "unit": "fold"},
      {"measurement": "FC Glucocorticoid-induced leucine zipper (Gilz) (Dsip1)", "setting": "GenBank NM_010286, vs mice given only isoproterenol", "value": "−2.5"},
      {"measurement": "FC Lymphocyte antigen 6 complex, locus C (Ly6c)", "setting": "GenBank NM_010741, vs mice given only isoproterenol", "value": "−2.1"},
      {"measurement": "FC Matrix metalloproteinase 3 (Mmp3)", "setting": "GenBank NM_010809, vs mice given only isoproterenol", "value": "−2.9"},
      {"measurement": "FC Notch gene homolog 4, (Drosophila) (Notch4)", "setting": "GenBank NM_010929, vs mice given only isoproterenol", "value": "−2.2"},
      {"measurement": "FC Proline dehydrogenase (Prodh)", "setting": "GenBank NM_011172, vs mice given only isoproterenol", "value": "−2.0"},
      {"measurement": "FC Small inducible cytokine A9 (Scya9) (Ccl9) (Mip-1[…])", "setting": "GenBank NM_011338, vs mice given only isoproterenol", "value": "−2.1"},
      {"measurement": "FC Interferon-related developmental regulator 1 (Ifrd1)", "setting": "GenBank NM_013562, vs mice given only isoproterenol", "value": "−1.6"},
      {"measurement": "FC Methyl-CpG binding domain protein 1 (Mbd1)", "setting": "GenBank NM_013594, vs mice given only isoproterenol", "value": "−2.6"},
      {"measurement": "FC Metallothionein 1 (Mt1)", "setting": "GenBank NM_013602, vs mice given only isoproterenol", "value": "−2.4"},
      {"measurement": "FC S100 calcium binding protein A8 (calgranulin A) (S100a8)", "setting": "GenBank NM_013650, vs mice given only isoproterenol", "value": "−19.9"},
      {"measurement": "FC Mitogen-activated protein kinase kinase kinase 6 (Map3k6)", "setting": "GenBank NM_016693, vs mice given only isoproterenol", "value": "−3.2"},
      {"measurement": "FC Tubulin, alpha 8 (Tuba8)", "setting": "GenBank NM_017379, heart, drug + isoproterenol vs isoproterenol-only mice, CH vs normal FC −3.3", "value": 3.1, "unit": "fold"},
      {"measurement": "FC Small inducible cytokine subfamily B (Cys-X-Cys), member 13 (Scyb13) (Cxcl13)", "setting": "GenBank NM_018866, vs mice given only isoproterenol", "value": "−4.4"},
      {"measurement": "FC Ras-related associated with diabetes (Rrad)", "setting": "GenBank NM_019662, vs mice given only isoproterenol", "value": 2.4},
      {"measurement": "FC Phosphodiesterase 4A, cAMP specific (Pde4a)", "setting": "GenBank NM_019798, vs mice given only isoproterenol", "value": 1.8},
      {"measurement": "FC Toll-like receptor 4 (TLR4)", "setting": "GenBank NM_021297, heart, drug + isoproterenol vs isoproterenol-only mice, CH vs normal FC 3.2", "value": "−2.6", "unit": "fold"},
      {"measurement": "FC Solute carrier family 43, member 3 (Slc43a3)", "setting": "GenBank NM_021398, vs mice given only isoproterenol", "value": "−2.0"},
      {"measurement": "FC Titin immunoglobulin domain protein (Myotilin, Myot)", "setting": "GenBank NM_021484, heart, drug + isoproterenol vs isoproterenol-only mice, CH vs normal FC 4.8", "value": "−3.0", "unit": "fold"},
      {"measurement": "FC Jutophilin 2 (Jph2)", "setting": "GenBank NM_021566, vs mice given only isoproterenol", "value": 2.1},
      {"measurement": "FC Transformation related protein 53 inducible nuclear protein 1 (Trp53inp1)", "setting": "GenBank NM_021897, heart, drug + isoproterenol vs isoproterenol-only mice, CH vs normal FC 4.8", "value": "−3.5", "unit": "fold"},
      {"measurement": "FC Homocysteine-inducible, endoplasmic reticulum stress-inducible, ubiquitin-like domain member 1 (Herpud1)", "setting": "GenBank NM_022331, vs mice given only isoproterenol", "value": "−3.0"},
      {"measurement": "FC Retinol binding protein 7, cellular (Rbp7)", "setting": "GenBank NM_023462, vs mice given only isoproterenol", "value": "−1.6"},
      {"measurement": "FC Thioredoxin interacting protein (Txnip)", "setting": "GenBank NM_023719, heart, drug + isoproterenol vs isoproterenol-only mice, CH vs normal FC 1.8", "value": "−3.5", "unit": "fold"},
      {"measurement": "FC F-box only protein 32 (Fbxo32)", "setting": "GenBank NM_026346, vs mice given only isoproterenol", "value": "−4.7"},
      {"measurement": "FC Membrane-spanning 4-domains, subfamily A, member 6d (Ms4a6d)", "setting": "GenBank NM_026835, vs mice given only isoproterenol", "value": "−2.2"},
      {"measurement": "FC Membrane-spanning 4-domains, subfamily A, member 6B (Ms4a6b)", "setting": "GenBank NM_027209, vs mice given only isoproterenol", "value": "−1.7"},
      {"measurement": "FC Leucine-rich alpha-2-glycoprotein (Lrg-pending)", "setting": "GenBank NM_029796, vs mice given only isoproterenol", "value": "−2.9"},
      {"measurement": "FC Fibroblast growth factor 16 (Fgf16)", "setting": "GenBank NM_030614, vs mice given only isoproterenol", "value": 2.8},
      {"measurement": "FC Transcription factor 23 (Tcf23)", "setting": "GenBank NM_053085, heart, drug + isoproterenol vs isoproterenol-only mice, CH vs normal FC 3.5", "value": "−2.3", "unit": "fold"},
      {"measurement": "FC Secretoglobin, family 3A, member 1 (Scgb3a1)", "setting": "GenBank NM_054037, vs mice given only isoproterenol", "value": "−2.2"}
    ]}
  ]
}
